From PMC3116189, “Novel Natural Inhibitors of CYP1A2 Identified by in Silico and in Vitro Screening” (International Journal of Molecular Sciences, 2011)
Counter-ions that a name gives are not always drawn.

target: T1, CYP1A2 (Homo sapiens, UniProt P05177); assay: in vitro; format: biochemical; conditions: 1 μM active ingredient, Rh CYP1A2-mediated phenacetin O-deethylation, test dataset of 202 herb ingredients
T1 sequence (P05177 1-516): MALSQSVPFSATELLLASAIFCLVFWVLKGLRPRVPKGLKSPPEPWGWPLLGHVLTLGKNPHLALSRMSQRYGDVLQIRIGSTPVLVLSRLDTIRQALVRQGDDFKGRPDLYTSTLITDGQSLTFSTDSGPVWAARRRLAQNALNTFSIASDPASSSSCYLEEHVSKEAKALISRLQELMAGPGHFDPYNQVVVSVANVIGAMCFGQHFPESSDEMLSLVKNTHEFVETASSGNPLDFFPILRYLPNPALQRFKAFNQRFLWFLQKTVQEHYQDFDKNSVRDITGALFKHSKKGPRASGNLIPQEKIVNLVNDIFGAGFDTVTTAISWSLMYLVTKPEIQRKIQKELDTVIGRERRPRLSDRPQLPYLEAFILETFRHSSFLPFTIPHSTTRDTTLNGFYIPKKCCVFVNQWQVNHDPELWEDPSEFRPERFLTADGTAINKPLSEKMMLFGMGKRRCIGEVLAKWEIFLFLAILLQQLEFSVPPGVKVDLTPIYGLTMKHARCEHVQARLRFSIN
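Note: recombinant CYP1A2 incubated for 1 h at 37 °C, with the reaction started by an NADPH-generating system.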
Method: A total of 18 candidate compounds selected by pharmacophore and docking were examined for their potential to inhibit rhCYP1A2 phenacetin O-deethylation activity at a test concentration of 1 μM.
The basic incubation medium contained 100 mM potassium phosphate buffer (PH 7.4), 50 pmol recombinant human CYP1A2, 25 μM phenacetin and 1 μM active ingredients. The final incubation volume was 200 μL. After 5 min pre-incubation at 37 °C, the reaction was initiated by the addition of NADPH-generating system (5 mM MgCl2, 10 mM glucose 6-phosphates, 1 mM NADPH, and 2.5 U per mL glucose 6-phosphate dehydrogenase). Incubations were performed in a 37 °C shaking water bath for 1 h. Reactions were stopped by adding 0.4 mL of ice-cold acetonitrile containing 0.2 mg/L tinidazole (IS). […] The column was maintained at 35 °C and the injection volume was 10 μL.

Compound	% of Control Indication Activity (Mean)
C/C=C(/C)C(=O)O[C@H]1[C@@H](OC(C)=O)c2c(ccc3ccc(=O)oc23)OC1(C)C [Praeruptorin A]	> 90%

same assay, conditions: human, recombinant enzyme, pH 7.4

Compound	activity at 1 h, 1 μM
CN1CCc2cc3c(cc2C(=O)Cc2ccc4c(c2C1)OCO4)OCO3 [Protopine]	> 90%
O=c1c(-c2ccc(O)cc2)coc2c([C@@H]3O[C@H](CO)[C@@H](O)[C@H](O)[C@H]3O)c(O)ccc12 [Puerarin]	> 90%
C[C@@H]1O[C@@H](Oc2cc(O)c3c(=O)c(O)c(-c4ccc(O)cc4)oc3c2O)[C@H](O)[C@H](O)[C@H]1O [Rhodionin]	> 90%
O=c1c2ccccc2nc2n1CCc1c-2[nH]c2ccccc12 [Rutaecarpine]	> 90%
C[C@@H]1O[C@@H](OC[C@H]2O[C@@H](Oc3c(-c4ccc(O)c(O)c4)oc4cc(O)cc(O)c4c3=O)[C@H](O)[C@@H](O)[C@@H]2O)[C@H](O)[C@H](O)[C@H]1O [Rutin]	> 90%
C[C@H]1O[C@@H](O[C@H]2CC[C@@]3(C)[C@@H](CC[C@]4(C)[C@@H]3C=C[C@]35OC[C@@]6(CCC(C)(C)C[C@H]63)[C@@H](O)C[C@]54C)[C@]2(C)CO)[C@H](O)[C@@H](O[C@@H]2O[C@H](CO)[C@@H](O)[C@H](O)[C@H]2O)[C@H]1O [Saikosaponin A]	> 90%
OC[C@H]1O[C@@H](OCCc2ccc(O)cc2)[C@H](O)[C@@H](O)[C@@H]1O [Salidroside]	> 90%
COc1cc(C2Oc3cc([C@H]4Oc5cc(O)cc(O)c5C(=O)[C@@H]4O)ccc3OC2CO)ccc1O (stereo partly drawn) [Silibinin]	> 90%

same assay, conditions: human, recombinant human CYP1A2, pH 7.4, probe phenacetin (25 μM), O-deethylation to acetaminophen; 1 μM active ingredient, Rh CYP1A2-mediated phenacetin O-deethylation, test dataset of 202 herb ingredients; read-out: % of Control Indication Activity (Mean)

Compound	activity at 1 h, 1 μM
OC[C@H]1O[C@@H](Oc2cc(O)cc(/C=C/c3ccc(O)cc3)c2)[C@H](O)[C@@H](O)[C@@H]1O [Polydatin]	> 90%
O=C(O)c1ccc(O)c(O)c1 [Protocatechuic acid]	> 90%
COC(=O)C1=CC[C@@]23CC[C@@H]([C@@](C)(/C=C/C=C(\C)C(=O)O)OC2=O)[C@@]3(OC(C)=O)CC1 [Pseudolaric acid B]	> 90%
CC(C)=C1CC[C@@H](C)CC1=O [Pulegone]	> 90%
O=c1c(O)c(-c2ccc(O)c(O)c2)oc2cc(O)cc(O)c12 [Quercetin]	> 90%
O=C(O)c1cc(O)c2c(c1)C(=O)c1cccc(O)c1C2=O [Rhein]	> 90%
COc1cc2c(c(OC)c1OC)-c1c(cc(OC)c(OC)c1OC)C[C@](C)(O)[C@@H](C)C2 [Schizandrin]	> 90%
COc1cc2ccc(=O)oc2cc1O [Scopoletin]	> 90%
O=C(O)[C@H]1O[C@@H](Oc2cc3oc(-c4ccc(O)cc4)cc(=O)c3c(O)c2O)[C@H](O)[C@@H](O)[C@@H]1O [Scutellarin]	> 90%
O=c1c(-c2ccc(O[C@@H]3O[C@H](CO)[C@@H](O)[C@H](O)[C@H]3O)cc2)coc2cc(O)cc(O)c12 [Sophoricoside]	> 90%

same assay, conditions: recombinant enzyme

Compound	% of Control Indication Activity (Mean)
COc1cc(/C=C/C(=O)OCC[N+](C)(C)C)cc(OC)c1O [Sinapine]	> 90

same assay, conditions: recombinant enzyme, pH 7.4

Compound	activity
CN1[C@@H]2C[C@@H](OC(=O)[C@H](CO)c3ccccc3)C[C@H]1[C@@H]1O[C@@H]12 [Scopolamine Hydrobromide]	> 90%
COC1=C[C@@H]2[C@@H]3Cc4ccc(OC)c(O)c4[C@]2(CCN3C)CC1=O [Sinomenine]	> 90%

same assay, conditions: recombinant enzyme, pH 7.4; 1 μM active ingredient, Rh CYP1A2-mediated phenacetin O-deethylation, test dataset of 202 herb ingredients; read-out: % of Control Indication Activity (Mean)

Compound	activity at 1 h, 1 μM	activity
O=c1ccc2cc3ccoc3cc2o1 [Psoralen]	10.8%	–
C[C@@H]1O[C@@H](Oc2c(-c3ccc(O)c(O)c3)oc3cc(O)cc(O)c3c2=O)[C@H](O)[C@H](O)[C@H]1O [Quercitrin]	–	> 90%
C[C@]12CC[C@H](O)C[C@H]1CC[C@@H]1[C@@H]2CC[C@]2(C)[C@@H](c3ccc(=O)oc3)C[C@H]3O[C@]132 [Resibufogenin]	> 90%	–
C[C@H]1CC[C@@]2(OC1)O[C@H]1C[C@H]3[C@@H]4CC[C@@H]5C[C@@H](O)CC[C@]5(C)[C@H]4CC[C@]3(C)[C@H]1[C@@H]2C [Sarsasapogenin]	–	> 90%
c1cc2c(cc1[C@H]1OC[C@H]3[C@@H]1CO[C@@H]3c1ccc3c(c1)OCO3)OCO2 [Sesamin]	–	> 90%
